pIC50: −log10 of the molar value. Values joined by “and” are separate entries in the source; they are usually repeats but may differ in a detail not shown here. Equal entries are not always repeated.
Molecular target: T1, GST fusion protein containing the Met kinase domain (Homo sapiens, UniProt P08581)
T1 construct: Purified GST fusion protein containing the Met kinase domain, Sugen, Inc
Test: MET Transphosphorylation Assay (ELISA, poly(Glu,Tyr) 4:1 substrate)
Format: biochemical
Conditions: met transphosphorylation of poly(glutamic acid:tyrosine 4:1) substrate; two values in a cell separated by '/'
How it was run: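 Poly(Glu-Tyr)-coated wells received the GST-Met kinase domain (10 ng/well) with compound in DMSO for 15 minutes. The reaction was started with ATP/MnCl2 in HEPES pH 7.5 buffer with vanadate, run 5 minutes, and stopped with EDTA. Phosphotyrosine was detected by anti-pTyr antibody, HRP secondary and ABTS/H2O2.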

T1 sequence (P08581 1078-1345 limits assumed): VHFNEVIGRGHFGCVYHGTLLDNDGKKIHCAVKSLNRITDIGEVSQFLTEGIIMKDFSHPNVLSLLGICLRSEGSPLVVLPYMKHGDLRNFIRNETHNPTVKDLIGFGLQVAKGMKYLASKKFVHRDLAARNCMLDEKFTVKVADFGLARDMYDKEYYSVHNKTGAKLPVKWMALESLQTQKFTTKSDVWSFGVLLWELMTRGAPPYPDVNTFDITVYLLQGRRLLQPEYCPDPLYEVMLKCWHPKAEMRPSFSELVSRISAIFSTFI

| Structure (SMILES) | pIC50 |
| --- | --- |
| O=C(Cc1ccc(O)c(O)c1)N/N=C1\C(=O)Nc2ccccc21 [II-64, (3,4-Dihydroxy-phenyl)-acetic acid [(3E)-2-oxo-1,2-dihydro-indol-3-ylidene]-hydrazide] | < 4.70 |
| CSc1ccc(CC(=O)N/N=C2\C(=O)Nc3ccccc32)cc1 [Example I-19, (4-Methylsulfanyl-phenyl)-acetic acid [(3Z]-2-oxo-1,2-dihydro-indol-3-ylidene]-hydrazide] | < 4.70 |
| O=C(Cc1ccc(O)cc1)N/N=C1\C(=O)Nc2c(Cl)cccc21 [II-36, (4-Hydroxy-phenyl)-acetic acid [(3Z)-7-chloro-2-oxo-1,2-dihydro-indol-3-ylidene]-hydrazide] | 7.66 |
| Cc1cn(CC(=O)N/N=C2\C(=O)Nc3c(Cl)ccc(Cl)c32)c(=O)[nH]c1=O [II-74, (5-Methyl-2,4-dioxo-3,4-dihydro-2H-pyrimidin-1-yl)-acetic acid [(3Z)-4,7-dichloro-2-oxo-1,2-dihydro-indol-3-ylidene]-hydrazide] | < 4.70 |
| O=C(Cc1ccc(O)cc1)N/N=C1\C(=O)Nc2c(Cl)ccc(Cl)c21 [II-38, (4-Hydroxy-phenyl)-acetic acid [(3Z)-4,7-dichloro-2-oxo-1,2-dihydro-indol-3-ylidene]-hydrazide] | 7.89 |
| O=C(Cc1ccc(Cl)cc1)N/N=C1\C(=O)Nc2ccccc21 [II-7, (4-Chloro-phenyl)-acetic acid [(3E)-2-oxo-1,2-dihydro-indol-3-ylidene]-hydrazide] | < 4.70 |
| Cn1cc(CC(=O)N/N=C2\C(=O)Nc3cc(Cl)c(C(=O)NCCN4CCOCC4)cc32)ccc1=O [Example I-46, (3Z)-6-Chloro-3-{[2-(1-methyl-6-oxo-1,6-dihydro-pyridin-3-yl)-acetyl]-hydrazono}-2-oxo-2,3-dihydro-1H-indole-5-carboxylic acid (2-morpholin-4-yl-ethyl)-amide] | 5.23 |
| O=C(Cc1ccc(Br)cc1)N/N=C1\C(=O)Nc2ccccc21 [II-34, (4-Bromo-phenyl)-acetic acid [(3Z)-2-oxo-1,2-dihydro-indol-3-ylidene]-hydrazide] | < 4.70 |
| CN(C)CC#Cc1ccc2c(c1)/C(=N/NC(=O)Cc1ccc(F)cc1)C(=O)N2 [Example I-50, (4-Fluoro-phenyl)-acetic acid [(3Z)-5-(3-dimethylamino-prop-1-ynyl)-2-oxo-1,2-dihydro-indol-3-ylidene]-hydrazide] | 4.92 |
| CC(C(=O)N/N=C1\C(=O)Nc2ccccc21)c1ccc(O)c(Br)c1 (stereo not drawn) [II-103, 2-(3-Bromo-4-hydroxy-phenyl)-propionic acid [(3Z)-2-oxo-1,2-dihydro-indol-3-ylidene]-hydrazide] | 6.74 |
| O=C(Cc1ccc(O)cc1)N/N=C1\C(=O)Nc2ccc(C(=O)O)cc21 [Example I-10, (3Z)-3-{[2-(4-Hydroxy-phenyl)-acetyl]-hydrazono}-(3Z)-2-oxo-2,3-dihydro-1H-indole-5-carboxylic acid] | 6.05 |
| Cc1ccc(C)c2c1NC(=O)/C2=N\NC(=O)Cc1ccc(O)c(C#N)c1 [II-112, (3-Cyano-4-hydroxy-phenyl)-acetic acid [(3Z)-4,7-dimethyl-2-oxo-1,2-dihydro-indol-3-ylidene]-hydrazide] | 5.60 |
| O=C(Cc1ccc(O)cc1)N/N=C1\C(=O)Nc2cccc(-c3ccc(F)cc3)c21 [Example I-15, (4-Hydroxy-phenyl)-acetic acid [(3Z)-4-(4-fluoro-phenyl)-2-oxo-1,2-dihydro-indol-3-ylidene]-hydrazide] | 6.05 |
| Cn1cc(CC(=O)N/N=C2\C(=O)Nc3ccc(C(=O)N4CCC[C@@H]4CN4CCCC4)c(Cl)c32)ccc1=O [Example I-36, (1-Methyl-6-oxo-1,6-dihydro-pyridin-3-yl)-acetic acid [(3Z)-4-chloro-2-oxo-5-[(2R)-2-pyrrolidin-1-ylmethyl-pyrrolidine-1-carbonyl]-1,2-dihydro-indol-3-ylidene]-hydrazide] | 5.38 |
| CC(C(=O)N/N=C1\C(=O)Nc2ccc(C(=O)N3CCC[C@@H]3CN3CCCC3)c(Cl)c21)c1ccc(F)cc1 (stereo partly drawn) [Example I-40, 2-(4-Fluoro-phenyl)-propionic acid [(3Z)-4-chloro-2-oxo-5-[(2R)-(2-pyrrolidin-1-ylmethyl-pyrrolidine-1-carbonyl)]-1,2-dihydro-indol-3-ylidene]-hydrazide] | 6.37 |
| CS(=O)(=O)c1ccc2c(c1)/C(=N/NC(=O)Cc1ccc(O)cc1)C(=O)N2 [Example I-9, (4-Hydroxy-phenyl)-acetic acid [(3Z)-5-methanesulfonyl-2-oxo-1,2-dihydro-indol-3-ylidene]-hydrazide] | > 8.04 and 7.66 |
| O=C(Cc1ccc(O)c(Cl)c1)N/N=C1\C(=O)Nc2ccc(C(=O)N3CCC(NC4CC4)CC3)c(Cl)c21 [Example I-38, (3-Chloro-4-hydroxy-phenyl)-acetic acid [(3Z)-4-chloro-5-(4-cyclopropylamino-piperidine-1-carbonyl)-2-oxo-1,2-dihydro-indol-3-ylidene]-hydrazide] | 7.59 |
| O=C(CCc1ccc(O)cc1)N/N=C1\C(=O)Nc2ccccc21 [II-25, 3-(4-Hydroxy-phenyl)-propionic acid [(3Z)-2-oxo-1,2-dihydro-indol-3-ylidene]-hydrazide] | 5.20 |

| Structure (SMILES) | pIC50 |
| --- | --- |
| Nc1cccc(CC(=O)N/N=C2\C(=O)Nc3c(Cl)ccc(Cl)c32)c1 [II-78, (3-Amino-phenyl)-acetic acid [(3Z)-4,7-dichloro-2-oxo-1,2-dihydro-indol-3-ylidene]-hydrazide] | 6.96 |
| Cc1ccc(C)c2c1NC(=O)/C2=N\NC(=O)CCc1ccc(N)cc1 [II-93, 3-(4-Amino-phenyl)-propionic acid [(3Z)-4,7-dimethyl-2-oxo-1,2-dihydro-indol-3-ylidene]-hydrazide] | < 4.70 |
| O=C1Nc2ccccc2/C1=N/NC(=O)C(CO)c1ccccc1 (stereo not drawn) [Example I-7, 3-Hydroxy-2-phenyl-propionic acid [(3Z)-2-oxo-1,2-dihydro-indol-3-ylidene]-hydrazide] | < 4.70 |
| Cc1ccc2c(c1Br)/C(=N/NC(=O)Cc1ccc(O)cc1)C(=O)N2 [II-53, (4-Hydroxy-phenyl)-acetic acid [3Z)-(4-bromo-5-methyl-2-oxo-1,2-dihydro-indol-3-ylidene]-hydrazide] | 7.64 |
| CCOc1ccc(CC(=O)N/N=C2\C(=O)Nc3ccccc32)cc1 [II-10, (4-Ethoxy-phenyl)-acetic acid [(3Z)-2-oxo-1,2-dihydro-indol-3-ylidene]-hydrazide] | < 4.70 |
| O=C(Cc1ccc(O)cc1)N/N=C1\C(=O)Nc2ccc(OC(F)(F)F)cc21 [Example I-17, (4-Hydroxy-phenyl)-acetic acid [(3Z)-2-oxo-5-trifluoromethoxy-1,2-dihydro-indol-3-ylidene]-hydrazide] | 7.24 |
| O=C(Cc1ccc(O)cc1)N/N=C1\C(=O)Nc2ccc(Cl)c(Cl)c21 [II-33, (4-Hydroxy-phenyl)-acetic acid [(3Z)-4,5-dichloro-2-oxo-1,2-dihydro-indol-3-ylidene]-hydrazide] | 7.82 |
| O=C(Cc1ccc(O)c(F)c1)N/N=C1\C(=O)Nc2ccccc21 [II-43, (3-Fluoro-4-hydroxy-phenyl)-acetic acid [(3Z)-2-oxo-1,2-dihydro-indol-3-ylidene]-hydrazide] | 7.27 |
| O=C(Cc1ccc(O)cc1)N/N=C1\C(=O)Nc2cccc(C3CCNCC3)c21 [Example I-18, (4-Hydroxy-phenyl)-acetic acid [(3Z)-2-oxo-4-piperidin-4-yl-1,2-dihydro-indol-3-ylidene]-hydrazide] | < 4.70 |
| Cn1cc(CC(=O)N/N=C2\C(=O)Nc3ccc(C(=O)O)c(Cl)c32)ccc1=O [Example I-34, (3Z)-4-Chloro-3-{[2-(1-methyl-6-oxo-1,6-dihydro-pyridin-3-yl)-acetyl]-hydrazono}-2-oxo-2,3-dihydro-1H-indole-5-carboxylic acid] | 5.68 |
| COc1ccc(CC(=O)N/N=C2\C(=O)Nc3c(C)ccc(C)c32)cn1 [II-45, (6-Methoxy-pyridin-3-yl)-acetic acid [(3Z)-4,7-dimethyl-2-oxo-1,2-dihydro-indol-3-ylidene]-hydrazide] | 6.96 |
| O=C(Cc1ccc2c(c1)OCO2)N/N=C1\C(=O)Nc2ccc(S(=O)(=O)NCCN3CCOCC3)cc21 [Example I-31, (3Z)-3-[(2-Benzo[1,3]dioxol-5-yl-acetyl)-hydrazono]-2-oxo-2,3-dihydro-1H-indole-5-sulfonic acid (2-morpholin-4-yl-ethyl)-amide] | 6.49 |
| O=C(Cc1cccc(O)c1)N/N=C1\C(=O)Nc2ccccc21 [II-30, (3-Hydroxy-phenyl)-acetic acid [(3Z)-2-oxo-1,2-dihydro-indol-3-ylidene]-hydrazide] | 5.84 |
| COc1ccc(CC(=O)N/N=C2\C(=O)Nc3c(Cl)ccc(Cl)c32)cc1C#N [II-106, (3-Cyano-4-methoxy-phenyl)-acetic acid [(3Z)-4,7-dichloro-2-oxo-1,2-dihydro-indol-3-ylidene]-hydrazide] | < 4.70 |
| COc1ccc2c(c1)/C(=N/NC(=O)Cc1ccc(O)cc1)C(=O)N2 [II-98, (4-Hydroxy-phenyl)-acetic acid [(3Z)-5-methoxy-2-oxo-1,2-dihydro-indol-3-ylidene]-hydrazide] | 7.05 |
| CC(C(=O)N/N=C1\C(=O)Nc2ccc(NC(=O)CN3CCOCC3)cc21)c1ccc(F)cc1 (stereo not drawn) [Example I-54] | 5.23 |
| O=C(Cc1ccc(O)cc1)N/N=C1\C(=O)Nc2ccc(Br)c(-c3cccc(F)c3)c21 [Example I-13, (4-Hydroxy-phenyl)-acetic acid [(3Z)-5-bromo-4-(3-fluoro-phenyl)-2-oxo-1,2-dihydro-indol-3-ylidene]-hydrazide] | 5.97 |
| CC(C(=O)N/N=C1\C(=O)Nc2ccc(C(=O)O)c(Cl)c21)c1ccc(F)cc1 (stereo not drawn) [Example I-29, (3Z)-4-Chloro-3-{[2-(4-fluoro-phenyl)-propionyl]-hydrazono}-2-oxo-2,3-dihydro-1H-indole-5-carboxylic acid] | 6.64 |

From patent US20060009493A1, “Indolinone hydrazides as c-Met inhibitors” (Sugen, Inc., priority 2003, published 2006)
